# Where no end group is shown, it is not given here. [ ]: non-standard residue; d: D form.
# Experiments:
# [1] = test system: PPC1 prostate cancer cells; assay: T7 phage binding and internalization on cultured PPC1 cells; assay type: cell-based, human; settings: for phage binding to and internalization into PPC1 cells: peptide displayed at C-terminus of T7 phage coat protein, binding at 4° C., internalization at 37° C. with pH 2.5 wash; for effect of trypsin treatment of phage on binding to PPC1 cells: peptide-displaying phage treated with trypsin before cell binding
# Experimental: (§1) To measure phage binding, 10^6 cells in binding buffer (DMEM containing 1% BSA) were incubated with 10^9 pfu/ml of T7 phage for 1 hour at 4° C. The cells were washed 4 times with the binding buffer, lysed in LB bacterial growth medium containing 1% NP-40, and titrated. Phage internalization assays used the same procedure, except that the cells were incubated with the phage at 37° C., and that an acidic buffer (500 mM sodium chloride, 0.1 M glycine, 1% BSA, pH 2.5) was used instead of binding buffer in the second wash.
# Inhibitors of phage binding and internalization (heparin, chondroitin, glycocalyx removal enzymes, endocytosis inhibitors, free peptides, quantum dots and UV-inactivated phage) were added to the cells 20 minutes prior to incubation with phage. Endocytosis inhibitors used in this study were the following: nystatin (50 μg/ml), genistein (100 μg/ml), chlorpromazine (5 μg/ml), 5-(N-ethyl-N-isopropyl)amiloride (100 μM), wortmannin (10 μM).
# M21 melanoma cells were transiently transfected with these constructs using lipofectamine according to manufacturer's instructions (Invitrogen, Carlsbad, Calif.). Protease treatment of phage and qdots. 10^9 phage particles or 50 μl of peptide-coated qdots phage were treated with 50 iu of uPA, 25 μg of crystalline trypsin, 50 iu of thrombin, or 25 μg of collagenase type I (all Sigma, St. Louis, Mo.).
# [2] = Stability of methylated iRGD peptides against proteolysis; assay type: in vitro ADME; settings: peptide bond protected by C-methylation or N-methylation
# orthotopic 22Rv1 tumors = assay: 22Rv1 xenograft treatment with DOX-liposomes; assay type: in vivo, mice; settings: daily i.v. 1 mg DOX/kg + 2 μmol/kg peptide, 17 days, tumor weight
# Experimental: (FIGS. 14A and 14B) Nude mice bearing orthotopic 22Rv1 human prostate tumors were intravenously injected with DOX-liposomes (3 mg DOX/kg) followed 5 min later by 100 nmol iRGD or PBS. Tumors and tissues were collected 3 hours later. In (FIG. 14A), the tumors were sectioned and stained with an anti-CD31 antibody. The doxorubicin is represented by the light specs that look like four halos in the left panel. Scale bars=200 μm, n=3. In (FIG. 14B), DOX in the tissues was quantified. […] The tumors were harvested and weighed after 17 days of treatment. The number of mice in each group was 5. One of 3 experiments that gave similar results is shown. (FIG. 14D) TUNEL staining was performed immunohistochemically on tissue sections of the tumor and heart samples from the treatment study, and quantified for positivity. Statistical analyses were performed with Student's r-test in (FIG. 14B), and ANOVA in (FIG. 14C) and (FIG. 14D); error bars, s.e.m.; n.s., not significant; single asterisk, p<0.05; double asterisk, p<0.01; triple asterisk, p<0.001.
# Nude mice bearing 2 week-old orthotopic 22Rv1 tumors received daily intravenous injections of DOX-liposomes ([…]) or PBS, combined with 2 μmol/kg iRGD or PBS. The tumors were harvested and weighed after 17 days of treatment. The number of animals in each group was 13. […]
# [3] = test system: orthotopic MIA PaCa-2 human pancreatic carcinoma xenografts; assay: In vivo systemic permeability assay with Evans Blue, pancreatic tumor xenografts; set-up: species or system mice; settings: 100 nmol (or 100 μg) peptide 5 min after Evans Blue, tissues collected 30 min later
# Experimental: FIGS. 5A and 5B show tumor-specific entry of Evans Blue (albumin) into extravascular tumor tissue in iRGD-injected mice. iRGD is SEQ ID NO:3. iRGDD is SEQ ID NO:4. Mice bearing orthotopically transplanted pancreatic or breast cancer xenografts were injected with […] of Evans Blue, followed 5 min later by 100 μg of iRGD peptide in PBS, PBS alone, or a control peptide. Tumors and tissues were collected 30 min. later and examined for dye content. […] About 4 times more dye accumulated in the iRGD-treated tumors than in control tumors. The control peptides included non-CendR RGD peptides.
# FIGS. 9A-9D show a tumor-specific entry of Evans Blue into extravascular tumor tissue in iRGD-injected mice. iRGD is SEQ ID NO:3. iRGDD is SEQ ID NO:4. […] (FIGS. 9B to 9D) Quantification of Evans Blue in the pancreatic tumors and tissues. […]
# Five min later, the mice received an intravenous injection with 100 μl of PBS with or without iRGD or control peptides at various concentrations. […] For Evans Blue quantification, the dye was extracted from tissues using N,N-dimethylformamide for 24 hours at 37° C. and the dye content was quantified by measuring the absorbance at 600 nm with a spectrophotometer. […] Quantification of the positive area in immunohistochemically stained sections, and total amount of antibodies within the tissues are described elsewhere in this manuscript.
# NRP-1 [4] = target: T1, NRP-1 (Homo sapiens, UniProt O14786); assay: Affinity chromatography of PPC-1 tumor extracts on immobilized RPARPAR peptide; assay type: binding; settings: PPC-1 tumor extract; confirmed by immunoblotting
# T1 construct: from tissue; host or cells: orthotopic PPC-1 prostate tumor xenografts grown in BALB/c athymic nude mice
# Experimental: PPC-1 tumors were lysed in PBS containing 200 mM n-octyl-beta-D-glucopyranoside, followed by incubation with RPARPAR (SEQ ID NO:2)-coated Sulfolink-beads (Pierce, Rockford, Ill.) and elution in lysis buffer containing 2 mM free RPARPAR (SEQ ID NO:2) peptide. Gel fragments excised from silver stained gel of eluted fractions were subjected to MALDI-TOF mass spectrometry at the Burnham Institute for Medical Research Proteomics Resource.
# Orthotopic PPC-1 tumors were homgenized in PBS containing 400 mM n-octyl-beta-D-glucopyranoside, 1 mM MgSO4, 1 mM MnCl2, 1 mM CaCl2) and 1 tablet/5 ml of EDTA-free protease inhibitors cocktail (Sigma, St. Louis, Mo.). After 6 hours of extraction on a rotating platform at 4° C., the lysate was cleared by centrifugation (20 minutes at 14,000 rpm in refrigerated microcentrifuge) and loaded to an affinity column prepared by coupling cysteine-tagged RPARPAR (SEQ ID NO:2) peptide to Sulfolink coupling gel according to the manufacturer's instructions (Pierce, Rockford, Ill.). After overnight binding, the column was washed with a column wash buffer containing 200 mM n-octyl-beta-D-glucopyranoside, but otherwise identical to the lysis buffer, followed by elution with 2 mM free RPARPAR (SEQ ID NO:2) peptide in the same buffer. […]
# NRP-1 [5] = assay: RPARPAR binding and internalization in M21 melanoma cells with or without NRP-1 expression; assay type: cell-based; settings: M21 cells, which do not express NRP-1
# Experimental: as §1, with “For biopanning and phage binding studies (Hoffman, J. A. et al., 2004), cultured cells were grown to confluence and harvested with trypsin and mouse organs were dissociated using Medimachine (BD Biosciences, San Jose, Calif.). To” for “To”
# (§2) Expression construct of the wild type NRP-1 cDNA in pcDNA3.1(+) was a kind gift of Dr. Michael Klagsbrun. Site directed mutagenesis was used to generate triple mutation of the VEGF-165 binding site in the b1 domain of NRP-1 (S346A-E348A-349A) by replacing […] (SEQ ID NO:29; encoding amino acids SKET) with […] (SEQ ID NO:30; encoding AKAA).
# (§3) M21 melanoma cells were transiently transfected with these constructs using lipofectamine according to manufacturer's instructions (Invitrogen, Carlsbad, Calif.). Protease treatment of phage and qdots. […]
# NRP-1 [6] = target: T2, NRP-1 (Homo sapiens, UniProt O14786, E348A/S346A/T349A); assay: as above; assay type: cell-based; settings: triple mutation of VEGF-165 binding site in b1 domain
# T2 construct: expressed in transfected cells; host or cells: M21 melanoma cells, transient lipofectamine transfection
# Experimental: as §1, with “For biopanning and phage binding studies (Hoffman, J. A. et al., 2004), cultured cells were grown to confluence and harvested with trypsin and mouse organs were dissociated using Medimachine (BD Biosciences, San Jose, Calif.). To” for “To”
# as §2, §3
# live, unfixed cells = assay: Binding and uptake of peptide-functionalized quantum dots by cells; assay type: cell-based; settings: streptavidin qdots coated with biotinylated peptide
# Experimental: Biotinylated peptides were used to functionalize the 605ITK streptavidin qdots (Invitrogen, Carlsbad, Calif.) according to the manufacturer's instructions.
# Streptavidin ITK-605 quantum dots (Invitrogen, Carlsbad, Calif.) were functionalized with biotinylated peptides by incubation with 100 fold molar excess of peptide followed by removal of free peptide by dialysis.
# T1 sequence (O14786 22-923): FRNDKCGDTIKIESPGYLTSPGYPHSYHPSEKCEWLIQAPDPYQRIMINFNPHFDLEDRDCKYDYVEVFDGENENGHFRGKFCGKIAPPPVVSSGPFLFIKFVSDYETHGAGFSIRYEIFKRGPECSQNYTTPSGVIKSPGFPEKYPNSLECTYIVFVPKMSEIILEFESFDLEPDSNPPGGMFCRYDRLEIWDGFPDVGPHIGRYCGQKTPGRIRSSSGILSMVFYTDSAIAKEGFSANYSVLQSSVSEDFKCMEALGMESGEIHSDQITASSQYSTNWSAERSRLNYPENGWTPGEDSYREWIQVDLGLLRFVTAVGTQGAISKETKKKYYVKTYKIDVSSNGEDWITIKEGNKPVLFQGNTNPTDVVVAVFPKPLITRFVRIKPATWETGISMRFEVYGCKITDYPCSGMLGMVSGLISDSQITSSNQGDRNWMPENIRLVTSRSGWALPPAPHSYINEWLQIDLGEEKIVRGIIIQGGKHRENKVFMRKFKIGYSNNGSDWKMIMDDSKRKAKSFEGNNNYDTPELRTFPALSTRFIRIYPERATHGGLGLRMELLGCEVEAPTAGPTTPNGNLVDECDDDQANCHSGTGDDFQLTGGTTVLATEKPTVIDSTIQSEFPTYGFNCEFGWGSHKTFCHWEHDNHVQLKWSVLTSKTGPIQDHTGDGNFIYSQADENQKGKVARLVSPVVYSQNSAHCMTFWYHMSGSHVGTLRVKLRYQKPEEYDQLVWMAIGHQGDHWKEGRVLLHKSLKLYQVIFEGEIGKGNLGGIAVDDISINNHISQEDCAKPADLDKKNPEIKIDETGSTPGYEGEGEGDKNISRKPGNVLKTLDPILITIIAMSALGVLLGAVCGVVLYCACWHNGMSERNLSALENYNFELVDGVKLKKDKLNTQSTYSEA
# T2 sequence (O14786 22-923 S346A/E348A/T349A): as the sequence (O14786 22-923) above, with S325A, E327A, T328A counted along it
substance,measurement,setting,value
"ATWLPPR [A7R, reference compound]",phage binding to and internalization into PPC1 cells,[1],bound to and were taken up by PPC-1 cells
"TKPPR [enhanced tuftsin, reference compound]",phage binding to and internalization into PPC1 cells,[1],bound to and were taken up by PPC-1 cells
CR(NMe)GDKGPDC,stability against proteolysis,[2],stable against unwanted proteolysis
cyclo(-RGDfK-),anti-tumor effect of DOX-liposomes 1 mg DOX/kg combined with peptide,orthotopic 22Rv1 tumors,failed to enhance the effect of the drug
same,Evans Blue leakage/accumulation in tumor (vascular permeability effect),[3],inactive
RPARPARA,phage binding to and internalization into PPC1 cells,[1],abolished cell binding and internalization
same,effect of trypsin treatment of phage on binding to PPC1 cells,[1],restored PPC-1 cell binding
"CRGDC [non-internalizing, non-CendR RGD peptide, reference compound]",effect of trypsin treatment of phage on binding to PPC1 cells,[1],no effect
"CDCRGDCFC [RGD-4C, reference compound]",Evans Blue leakage/accumulation in tumor (vascular permeability effect),[3],inactive
same,effect of trypsin treatment of phage on binding to PPC1 cells,[1],no effect
C(CMe)RGDKGPDC,stability against proteolysis,[2],stable against unwanted proteolysis
RPARPAR [prototypic CendR peptide],protein eluted from immobilized peptide with free peptide,NRP-1 [4],"130-kDa protein, identified by MALDI-TOF mass spectroscopy as NRP-1"
same,binding and internalization by M21 melanoma cells,NRP-1 [5],do not bind nor internalize
same,binding by M21 cells transfected with NRP-1 binding pocket mutant,NRP-1 [6],did not confer
same,effect of inhibitors of cell internalization pathways on peptide-mediated internalization,[1]; endocytosis inhibitors added 20 minutes before phage,None of the available inhibitors of the various cell internalization pathways inhibited internalization
same,"effect of unlabeled peptide on binding and uptake of VEGF-C7, enhanced tuftsin or A7R phage by PPC-1 cells",[1]; unlabeled peptide included in the binding buffer,both activities were reduced
"rparpar ([dR][dP][dA][dR][dP][dA][dR]; also: on quantum dots) [D-rparpar, RPARPAR peptide comprised of D-amino acids, on quantum dots]",binding and uptake of peptide-functionalized quantum dots,"live, unfixed cells",greatly reduced ability to trigger uptake of quantum dots
